Data on 7 molecules can be found in patent US4324783A, “Antibacterial composition for medical use” (Toyama Chemical Co., Ltd., priority 1977, dated 1982).

Some results are limits rather than exact numbers.

Assay [1] deals with Escherichia coli TK-3 strain. In words: Growth-inhibition test on clinically isolated strain (Heart Infusion agar, about 10^8 cells/ml, 18 hours at 37° C.). The class given is cell-based. Also on record: key: (+) means that the test bacterium grew; (-) means that the test bacterium did not grow. Here is the method:
(§1) Heart Infusion agar containing a prescribed amount of Methicillin sodium or T-1220 was inoculated with the test bacterium at a rate of about 10^8 cells/ml. After incubation for 18 hours at 37° C., the growth of the test bacterium was inspected.

The test system of assay [2] is Pseudomonas aeruginosa S-12 strain. Described as above. The class given is cell-based. More on the design: key: (+) means that the test bacterium grew; (-) means that the test bacterium did not grow. Here is the method:
as §1

Assay [3] concerns Escherichia coli TK-3 strain. Description: Minimum inhibitory concentration. As to conditions: TK3STRAIN. The class given is cell-based.
The test system of assay [4] is Pseudomonas aeruginosa S-12 strain. In words: Minimum inhibitory concentration. The assay is classed as cell-based. As to conditions: S12STRAIN.
The test system of another assay is K. pneumoniae Y-53. Description: Effect of combined use on experimental infection in mice (protection effect). As to conditions: K. pneumoniae Y-53, 1.0 × 10^7 cells/mouse intraperitoneal; subcutaneous, one and two hours after inoculation. The assay is classed as in vivo, ICR mice infected with K. pneumoniae. The text has this: (§2) Male mice (5 mice per group) of the ICR strain, 4 weeks of age, were peritoneally inoculated with the prescribed number of pathogenic bacteria suspended in 5% mucin. After one hour and two hours following the inoculation, test preparations shown in Table 4 were subcutaneously administered to examine the protection effect.

The subject of the next assay is P. aeruginosa S-111. The description is as above. The class given is in vivo, ICR mice infected with P. aeruginosa. As to conditions: P. aeruginosa S-111, 1.6 × 10^6 cells/mouse intraperitoneal; subcutaneous, one and two hours after inoculation.
Text: as §2

Assay [5] concerns clinically isolated strains. Description: Test Examples 1 to 3 with other β-lactamase-inhibiting penicillins or cephalosporins. The assay is classed as cell-based. As to conditions: in place of Methicillin or Cloxacillin. Here is the method: as §1
The β-lactamase activity was assayed by the iodometric assay method at 30° C., following the procedure of Perret [C.J. Perret, "Iodometric Assay of Penicillinase," Nature, 174, 1012-1013 (1954)], except that a 0.1 molar phosphate buffer solution (pH 7.0) was used in place of the 0.2 molar phosphate buffer solution (pH 6.5). One unit of β-lactamase activity corresponds to the quantity of β-lactamase which decomposes 1 μmole/hour of T-1220 in a 0.1 molar phosphate buffer solution (pH 7.0) containing 8 m moles of the substrate.
A pathogenic bacterium was inoculated at a rate of about 10^8 cells/ml into a Heart Infusion broth containing T-1220 (200 μg/ml) alone, T-1220 (200 μg/ml) plus Methicillin sodium (200 μg/ml), T-1220 (200 μg/ml) plus Cloxacillin sodium (200 μg/ml), Methicillin sodium (200 μg/ml) alone, or Cloxacillin sodium (200 μg/ml) alone. The inoculated broth was incubated at 37° C. and the number of live cells in the culture broth was determined at predetermined time intervals.
The test results described in the foregoing Test Examples 1 to 3 are typical of the pharmacological activity of the antibacterial composition of this invention.

Setting [6] is: T-1220 0 + methicillin sodium 50 μg/ml.
[7] abbreviates: T-1220 0 + methicillin sodium 100 μg/ml.
[8] abbreviates: T-1220 0 + methicillin sodium 200 μg/ml.

With `COc1cccc(OC)c1C(=O)N[C@@H]1C(=O)N2[C@@H]1SC(C)(C)[C@@H]2C(=O)O` [Methicillin sodium], the “growth of the test bacterium” value in assay [1] (setting [6]), in assay [1] (setting [7]), in assay [1] (setting [8]), in assay [1] (T-1220 0 + methicillin sodium 400 μg/ml), in assay [1] (T-1220 0 + methicillin sodium 800 μg/ml) and in assay [1] (T-1220 0 + methicillin sodium 1600 μg/ml) was “+” each time. Besides, the “growth of the test bacterium” value in assay [1] (T-1220 0 + methicillin sodium 3200 μg/ml), in assay [2] (T-1220 0 + methicillin sodium 3.13 μg/ml), in assay [2] (T-1220 0 + methicillin sodium 6.25 μg/ml), in assay [2] (T-1220 0 + methicillin sodium 12.5 μg/ml), in assay [2] (T-1220 0 + methicillin sodium 25 μg/ml) and in assay [2] (setting [6]) was “+” in each case. Also, the “growth of the test bacterium” value in assay [2] (setting [7]) and in assay [2] (setting [8]) was “+” throughout. The MIC in assay [3] and in assay [4] was above 3200 µg/mL in each case. The “ED50 (protection effect)” value with K. pneumoniae Y-53 and in the assay on P. aeruginosa S-111 was above 50 mg/mouse in each case.

With `Cc1onc(-c2ccccc2)c1C(=O)N[C@@H]1C(=O)N2[C@@H]1SC(C)(C)[C@@H]2C(=O)O` [Oxacillin], in assay [5], the “results in the Test Examples when used as the β-lactamase-inhibiting penicillin or cephalosporin” value is “results similar to those obtained with Methicillin and Cloxacillin”.

`CCN1CCN(C(=O)N[C@@H](C(=O)N[C@@H]2C(=O)N3[C@@H]2SC(C)(C)[C@@H]3C(=O)O)c2ccccc2)C(=O)C1=O` [T-1220, sodium 6-[D(-)-α-(4-ethyl-2,3-dioxo-1-piperazinylcarbonylamino)phenylacetamido]penicillanate]: the “growth of the test bacterium” value in assay [1] (T-1220 50 + methicillin sodium 0 μg/ml), in assay [1] (T-1220 100 + methicillin sodium 0 μg/ml), in assay [1] (T-1220 200 + methicillin sodium 0 μg/ml), in assay [1] (T-1220 400 + methicillin sodium 0 μg/ml), in assay [1] (T-1220 800 + methicillin sodium 0 μg/ml) and in assay [1] (T-1220 1600 + methicillin sodium 0 μg/ml) was “+” throughout. Also, the “growth of the test bacterium” value in assay [1] (T-1220 3200 + methicillin sodium 0 μg/ml) is “+”; in assay [2] (T-1220 50 μg/ml, methicillin sodium concentration not given) it was “+”; in assay [2] (T-1220 100 μg/ml, methicillin sodium concentration not given), “+”; in assay [2] (T-1220 200 μg/ml, methicillin sodium concentration not given) it was “+”; in assay [2] (T-1220 400 μg/ml, methicillin sodium concentration not given), “+”; in assay [2] (T-1220 800 μg/ml, methicillin sodium concentration not given), “+”. In addition, the “growth of the test bacterium” value in assay [2] (T-1220 1600 μg/ml, methicillin sodium concentration not given) is “+”; in assay [2] (T-1220 3200 μg/ml, methicillin sodium concentration not given) it was “+”. In addition, the MIC in assay [3] and in assay [4] was above 3200 µg/mL throughout. Further, the “ED50 (protection effect)” value in the assay with K. pneumoniae Y-53 and in the assay with P. aeruginosa S-111 was above 50 mg/mouse in each case.

`Cc1onc(-c2ccccc2Cl)c1C(=O)N[C@@H]1C(=O)N2[C@@H]1SC(C)(C)[C@@H]2C(=O)O` [Cloxacillin sodium]: the MIC in assay [3] and in assay [4] was above 3200 µg/mL throughout.

With `CO[C@@]1(NC(=O)Cc2cccs2)C(=O)N2C(C(=O)O)=C(COC(N)=O)CS[C@@H]21` [Cefoxitin], the “results in the Test Examples when used as the β-lactamase-inhibiting penicillin or cephalosporin” value in assay [5] is “results similar to those obtained with Methicillin and Cloxacillin”.

In the case of `Cc1onc(-c2c(F)cccc2Cl)c1C(=O)N[C@@H]1C(=O)N2[C@@H]1SC(C)(C)[C@@H]2C(=O)O` [Flucloxacillin], in assay [5], the “results in the Test Examples when used as the β-lactamase-inhibiting penicillin or cephalosporin” value is “results similar to those obtained with Methicillin and Cloxacillin”.

For `Cc1onc(-c2c(Cl)cccc2Cl)c1C(=O)N[C@@H]1C(=O)N2[C@@H]1SC(C)(C)[C@@H]2C(=O)O` [Dicloxacillin], the “results in the Test Examples when used as the β-lactamase-inhibiting penicillin or cephalosporin” value in assay [5] was “results similar to those obtained with Methicillin and Cloxacillin”.

By MIC is commonly meant the smallest concentration in the dilution series that meets the test's criterion for growth inhibition.
